Results published in US8470770B2, “Antimicrobial agents” (priority 2007, dated 2013).
≈ marks a conversion by molar mass, not a printed value.

Columns and labels:
[1] = tested on: Escherichia coli (ATCC 35218); test: microbe, parasite or virus in culture; settings: ATCC 35218
Procedure: (§1) Minimal inhibitory concentrations (MICs) were determined by microdilution susceptibility testing in 96-well plates using inocula of 10^6 bacteria per ml.
(§2) Cell populations were evaluated by optical density measurements at 600 nm and were calibrated against a set of standards. Hundred (100) μl of a bacterial suspension were added to 100 μl of culture medium (control) or to 100 μl of culture medium containing various polymer concentrations in 2-fold serial dilutions.
(§3) Alternatively, MICs were determined using the microbroth dilution assay recommended by the Clinical and Laboratory Standards Institute (CLSI) using two-fold serial dilutions in cation-adjusted Mueller-Hinton broth (CAMHB).
“MIC E.c.” represents the minimal inhibitory concentration of each tested polymer in μM for E. coli, measured as described hereinabove in the antibacterial activity assay (column 5 in Table 3);

[2] = tested on: methicillin resistant Staphylococcus aureus (CI 15903); test: microbe, parasite or virus in culture; settings: methicillin resistant (CI 15903)
Procedure: as §1, §2, §3
“MIC MR S.a.” represents the minimal inhibitory concentration of each tested polymer in μM for methicillin-resistant S. aureus, measured as described hereinabove for the antibacterial activity assay of antibiotic-resistant bacteria (column 8 in Table 3);

[3] = tested on: Pseudomonas aeruginosa (ATCC 9027); test: microbe, parasite or virus in culture; settings: ATCC 9027
Procedure: as §1, §2, §3
“MIC P.a.” represents the minimal inhibitory concentration of each tested polymer in μM for P. aeruginosa, measured as described hereinabove for the antibacterial activity assay (column 7 in Table 3);

[4] = Hydrophobicity estimation by HPLC reversed-phase C18 elution; format: physicochemical; settings: HPLC-RP C18, linear acetonitrile gradient 1% per minute
Procedure: HPLC chromatograms were performed on C18 columns (Vydak, 250 mm×4.6 or 10 mm) using a linear gradient of acetonitrile in water (1% per minute), both solvents contained 0.1% trifluoroacetic acid. The purified polymers were subjected to mass spectrometry (ZQ Waters) to confirm their composition and stored as a lyophilized powder at −20° C. Prior to being tested, fresh solutions were prepared in water, mixed by vortex, solubilized by ultrasound, centrifuged and then diluted in the appropriate medium.
In order to estimate the hydrophobicity of each polymer, the polymer was eluted with a linear gradient of acetonitrile (1% per minute) on an HPLC reversed-phase C18 column, and the percent of acetonitrile at which the polymer was eluted was used for hydrophobicity estimation (see, “ACN (%)” in Table 3 below).
“ACN (%)” represents the percent of acetonitrile in the HPLC-RP gradient mobile phase at which the polymer was eluted and which corresponds to the estimated hydrophobicity of the polymer (column 4 in Table 3);

[5] = tested on: Bacillus cereus (ATCC 11778)
Procedure: as §1, §2, §3
“MIC B.c.” represents the minimal inhibitory concentration of each tested polymer in μM for Bacillus cereus, measured as described hereinabove for the antibacterial activity assay (column 9 in Table 3); and […]

| SMILES | MIC E.c. [1] | MIC MR S.a. [2] | MIC P.a. [3] | ACN (%) (percent of acetonitrile at which the polymer was eluted; estimated hydrophobicity) [4] | MIC B.c [5] |
| --- | --- | --- | --- | --- | --- |
| NCCCCC1NC(=O)CCCCCCCCCCCNC(=O)C(CCCCN)NC(=O)CCCCCCCCCCCNC(=O)C(CCCCN)NC(=O)CCCCCCCCCCCNC1=O (stereo not shown) [Polymer 4, Cyclic-(NC12K)3] | >50 µM | 12.5 µM (≈ 12.2 µg/mL) | >50 µM | 47.0% | >50 µM |
| NCCCCC1NC(=O)CCCCCCCCCCCNC(=O)C(CCCCN)NC(=O)CCCCCCCCCCCNC(=O)C(CCCCN)NC(=O)CCCCCCCCCCCNC(=O)C(CCCCN)NC(=O)CCCCCCCCCCCNC1=O (stereo not shown) [Polymer 5, Cyclic-(NC12K)4] | >50 µM | >50 µM | >50 µM | 47.4% | >50 µM |
